{"source": "patent EP3277282B1", "about": "(Istanbul Universitesi Rektorlugu, priority 2015, dated 2016)", "origin": "cited, not measured here", "key": {"[1]": {"conditions": "given to human by oral route"}}}
{"smiles": "Cc1nc(Nc2ncc(C(=O)Nc3c(C)cccc3Cl)s2)cc(N2CCN(CCO)CC2)n1", "note": "[Dasatinib, N-(2-chloro-6-methylphenyl)-2-[[6-[4-(2-hydroxyethyl)-1-piperazinyl]-2-methyl]-4-pyrimidinyl]amino]-5-thiazolecarboxamide mono-hydrate]", "values": [{"measurement": "systemic side effects", "setting": "[1]", "value": "bleeding in the intestines"}, {"measurement": "solubility in ethanol, methanol and organic solvents", "value": "soluble"}]}
